# Reference: patent publication US7264314B2, “Adrenocorticotropic hormone analogs and related methods” (priority 2004, dated 2007)
# Columns and labels:
# [1] = test system: ACTH-induced serum corticosterone in dexamethasone-suppressed mice; assay: in vivo Serum Corticosteroid Inhibition Assay; parameters: species or system FVB/N mice; conditions: peptide alone 120 minutes after dexamethasone, blood one hour later
# Excerpt: An in vivo Serum Corticosteroid Inhibition Assay measures the level of corticosteroid or corticosterone in the blood stream of a subject after administering a compound having a first corticosteroid-producing biological activity and a test compound. The compound having the corticosteroid-producing biological activity can be any compound known to induce a detectable increase in corticosteroid production. The test compound can be administered before the corticosteroid-producing compound, in combination with the corticosteroid-producing compound, and/or after the corticosteroid-producing compound. The corticosteroid-producing compound is preferably ACTH, but can also be an ACTH analog with a known corticosteroid-producing biological activity. By performing a series of in vivo Serum Corticosteroid Inhibition Assays using ACTH analog test compounds, ACTH analogs that inhibit the production of corticosteroid relative to the corticosteroid-producing compound used can be identified. Preferably, the ACTH analogs identified in this manner inhibit the production of corticosteroid in the presence of endogenous unmodified ACTH.
# The in vivo Serum Corticosteroid Inhibition Assay can include sequential administration of the test compound and the corticosteroid-producing compound by the following steps: first, an agent to suppress endogenous ACTH production was administered to a mouse subject, such as an intraperitoneal injection of dexamethasone; second, after waiting a suitable period of time for suppression of endogenous ACTH production (e.g., 1.5–2.0 hours), a test compound was administered to the mouse by a suitable method, such as intraperitoneal injection; third, after waiting a suitable period of time (e.g., 1 hour) for action of the test compound, a compound with corticosteroid-producing activity can be administered to the mouse by a suitable method, such as intraperitoneal injection; and fourth, after waiting a suitable period of time for the biological activity of both administered compounds to occur (e.g., 1 hour), a blood sample was taken from the subject and the level of serum corticosterone was determined by a suitable method, such as a competitive radioimmunoassay using ^125I RIA kit (ICN, Costa Mesa, Calif.). Optionally, steps two and three can be reversed (administering the corticosteroid-producing compound first, followed by administration of the test compound). The in vivo Serum Corticosteroid Inhibition Assay can also include co-administration of the test compound and the corticosteroid-producing compound by the following steps: first, an agent to suppress endogenous ACTH production was administered to a mouse subject, such as an intraperitoneal injection of dexamethasone; second, after waiting a suitable period of time for suppression of endogenous ACTH production (e.g., 1.5–2.0 hours), the corticosteroid-producing compound and a test compound were co-administered to the mouse by a suitable method, such as intraperitoneal injection; and third, after waiting a suitable period of time for the biological activity of both administered compounds to occur (e.g., 1 hour), a blood sample was taken from the subject and the level of serum corticosterone was determined by a suitable method, such as a competitive radioimmunoassay using ^125I RIA kit (ICN, Costa Mesa, Calif.). Also, in some embodiments, the first step in any in vivo Serum Corticosteroid Inhibition Assay can be replaced by a measurement of the initial endogenous corticosteroid or corticosteroid level in the blood of the subject in the manner of step four, instead of administering the agent to suppress ACTH production. Example 2 describes murine in vivo Serum Corticosteroid Inhibition Assays in detail.
# A series of separate in vivo Serum Corticosteroid Inhibition Assays were performed to identify ACTH analogs that inhibit ACTH adrenal hormone production in vivo. […]
# [2] = molecular target: T1, adrenal ACTH receptors such as MC-2R (explanted adrenal membrane) (Mus musculus, UniProt Q64326); assay: in vitro Serum-free Adrenal Competitive Binding Assay; parameters: species or system mice; conditions: cold peptide at 10 nM, 100 nM, 1000 nM
# T1 construct: the adrenal halves were macerated or otherwise dissociated using Dounce Homogenizer to form a membrane fraction; from tissue; host or cells: membrane fraction of explanted mouse adrenal glands
# Excerpt: ACTH analog compounds that bind to adrenal membrane with a greater affinity than endogenous unmodified ACTH, and are able to displace unmodified ACTH can be identified using an in vitro Serum-free Adrenal Competitive Binding Assay (Example 3). […] A higher CPM level indicates the presence of greater amounts of the radiolabelled compound. […] Column 220 indicates the level of radio-labeled unmodified mACTH(1–24) detected after combining the explanted adrenal membrane with only the radio-labeled mACTH(1–24) for 2 hours.(no competitive binding). Columns 230, 240, and 250 show the results of competitive binding assays for binding of non-radio-labeled (“cold”) mACTH(1–24) to displace the radio-labeled mACTH(1–24) from the explanted adrenal membrane (measured in column 220) by competitive binding to receptors such as MC-2R on the adrenal membrane. […]
# ACTH analogs with the ability to bind adrenal receptors with a greater affinity than compounds with known adrenal binding activity (preferably ACTH) can also be identified by performing an in vitro Adrenal Competitive Binding Assay, whereby measurement of the reduction in the amount of the radiolabelled adrenal-binding compound (e.g., ACTH) is measured at various concentrations of non-radio-labeled ACTH analog test compound in a medium containing explanted adrenal membrane. […]
# [3] = in vivo; cited from earlier work
# T1 sequence (Q64326 whole entry): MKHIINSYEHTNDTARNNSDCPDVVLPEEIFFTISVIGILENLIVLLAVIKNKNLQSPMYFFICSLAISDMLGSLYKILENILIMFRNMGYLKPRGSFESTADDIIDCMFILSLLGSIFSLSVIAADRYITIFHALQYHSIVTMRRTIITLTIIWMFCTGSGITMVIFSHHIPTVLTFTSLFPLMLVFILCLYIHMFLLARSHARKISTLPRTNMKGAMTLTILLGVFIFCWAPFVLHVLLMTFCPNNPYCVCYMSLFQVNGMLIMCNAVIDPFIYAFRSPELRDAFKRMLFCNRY
# T1 sequence (Q9D159 whole entry partner): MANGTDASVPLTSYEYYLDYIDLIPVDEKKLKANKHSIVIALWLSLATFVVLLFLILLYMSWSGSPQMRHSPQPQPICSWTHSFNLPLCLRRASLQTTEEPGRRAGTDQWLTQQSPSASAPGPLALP
substance,measurement,setting,value
"N-Ser^1-Tyr-Ser-Met-Glu^5-His-Phe-Arg-Trp-Gly^10-Lys-Pro-Val-Gly-Lys^15-Lys-Arg-Arg-Pro-Val^20-Lys-Val-Tyr-Pro-Ac [mACTH(1–24), reference compound]",serum corticosterone level at 180 minutes,[1],500 ± 76 ng/mL
same,serum corticosterone level at 180 minutes,[1]; listed as ACTH,500 ± 76 ng/mL
same,displacement of radio-labeled mACTH(1–24) from explanted adrenal membrane (CPM),[2],displacement of the radio-labeled mACTH(1–24)
same,half life in blood,[3],less than 20 minutes
